This note sets out measurements from patent US20210290514A1, “An Antimicrobial Combination Composition Comprising Glycerol Derivatives and Bicyclic Compounds” (CLARIANT INTERNATIONAL LIMITED, priority 2018, published 2021).

Molecules are shown by their SMILES.

What all share (assay): in vitro growth inhibition of a microbial strain by compositions formulated to pH 5.5
What all share (type): cell-based

The test system of one assay is Pseudomonas aeruginosa. Here is the method: (§1) Several antimicrobial combinations compositions were formulated to pH of 5.5. These compositions were tested for their ability to inhibit in vitro the growth of a microbial strain. “Green” indicates a substantial inhibition, “Yellow” indicates an intermediate inhibition, and “Red” indicates little to no inhibition.
For assay [1], the system named is Aspergillus brasilliensis. Here is the method:
as §1

The next assay deals with Candida albicans. Here is the method:
as §1

The next assay concerns Echerichia coli. Here is the method:
as §1

The test system of the next assay is Staphylococcus aureus. The procedure:
as §1

As to `CCCCC(CC)COCC(O)CO` (stereo not shown) [Velsan ethylhexylglycerin, 3-[(2-ethylhexyl)oxy]-1,2-propanediol], the “antimicrobial activity, Pseudomonas aeruginosa” value with Pseudomonas aeruginosa (0.5%), in the assay with Pseudomonas aeruginosa (0.8%), in the assay with Pseudomonas aeruginosa (1.0%) and in the assay on Pseudomonas aeruginosa (1.5%) was “Green” each time. Further, the “antimicrobial activity, Aspergillus brasilliensis” value in assay [1] (0.5%), in assay [1] (0.8%), in assay [1] (1.0%) and in assay [1] (1.5%) was “Red” in each case. In addition, the “antimicrobial activity, Candida albicans” value with Candida albicans (0.5%), in the assay with Candida albicans (0.8%), with Candida albicans (1.0%) and in the assay on Candida albicans (1.5%) was “Green” throughout. The “antimicrobial activity, Echerichia coli” value with Echerichia coli (0.5%), in the assay on Echerichia coli (0.8%), with Echerichia coli (1.0%) and in the assay with Echerichia coli (1.5%) was “Green” in each case. For the same compound, the “antimicrobial activity, Staphylococcus aureus” value in the assay with Staphylococcus aureus (0.5%), in the assay on Staphylococcus aureus (0.8%), in the assay with Staphylococcus aureus (1.0%) and in the assay on Staphylococcus aureus (1.5%) was “Green” throughout.
As for `CCCCCCCCOCC(O)CO` (stereo not shown) [Octylglycerin, 3-[(n-octyl)oxy]-1,2-propanediol], the “antimicrobial activity, Pseudomonas aeruginosa” value in the assay on Pseudomonas aeruginosa (0.5%), with Pseudomonas aeruginosa (0.8%), in the assay on Pseudomonas aeruginosa (1.0%) and with Pseudomonas aeruginosa (1.5%) was “Green” each time. Further, the “antimicrobial activity, Aspergillus brasilliensis” value in assay [1] (0.5%) is recorded as “Yellow”; in assay [1] (0.8%) it was “Green”; in assay [1] (1.0%), “Yellow”; in assay [1] (1.5%), “Yellow”. Also, the “antimicrobial activity, Candida albicans” value in the assay with Candida albicans (0.5%), in the assay on Candida albicans (0.8%), in the assay with Candida albicans (1.0%) and in the assay on Candida albicans (1.5%) was “Green” in each case. Also, the “antimicrobial activity, Echerichia coli” value in the assay on Echerichia coli (0.5%), with Echerichia coli (0.8%), in the assay with Echerichia coli (1.0%) and in the assay on Echerichia coli (1.5%) was “Green” each time. Further, the “antimicrobial activity, Staphylococcus aureus” value with Staphylococcus aureus (0.5%), in the assay on Staphylococcus aureus (0.8%), with Staphylococcus aureus (1.0%) and with Staphylococcus aureus (1.5%) was “Green” throughout.
